The structures appear in SMILES notation.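 All cell lines were grown in 96-well plates and treated with compound for 48 hours. At the TGI there is no net growth.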

Some test systems named below: ACHN renal; DU-145 prostate; EKVX NSCLC; HCC-2998 colon; HL-60(TB) leukemia; HOP-92 NSCLC; HT29 colon; K-562 leukemia; NCI-H23 lung; NCI-H460 lung; NCI-H522 lung; NCI/ADR-RES ovarian; OVCAR-8 ovarian; SF-268 CNS; SK-MEL-2 melanoma; SK-OV-3 ovarian; SN12C renal; T-47D breast; UO-31 renal.
Holding throughout (assay): NCI-60 cell line screen, 48 h

In the case of `Cc1c(O)c(C)c2c(C)cn(C(=O)C(C)(C)C)c2c1C`, the TGI is 35.3 µM in the test with ACHN renal; 43.9 µM in the test with DU-145 prostate; 49.7 µM in the test with EKVX NSCLC; 96.6 µM with HCC-2998 colon; more than 100 µM in the test on HL-60(TB) leukemia; 17.5 µM in the test with HOP-92 NSCLC. In addition, the TGI with HT29 colon is 42.6 µM; with K-562 leukemia it was 98.2 µM; in the test with NCI-H23 lung, 41.6 µM; with NCI-H460 lung it was 63.8 µM; in the test on NCI-H522 lung it was 56.2 µM; in the test on NCI/ADR-RES ovarian it was more than 100 µM. For the same compound, the TGI in the test on OVCAR-8 ovarian is 34.7 µM; with SF-268 CNS it was more than 100 µM; with SK-MEL-2 melanoma it was 43.4 µM; with SK-OV-3 ovarian, 42.8 µM; in the test on SN12C renal, 31.8 µM; in the test with T-47D breast it was 90 µM. The compound also displayed a TGI in the test on UO-31 renal of 79.6 µM.
For `CC(NNC(=O)CC(=O)N(C(=O)c1ccccc1)c1ccc(Cl)cc1)c1cc2ccccc2oc1=O` (stereo not drawn), the TGI with ACHN renal, in the test on DU-145 prostate, with EKVX NSCLC, with HCC-2998 colon, in the test with HL-60(TB) leukemia and with HOP-92 NSCLC was more than 10 µM throughout. In addition, the TGI in the test with HT29 colon, in the test on K-562 leukemia, with NCI-H23 lung, with NCI-H460 lung, in the test on NCI-H522 lung and in the test with NCI/ADR-RES ovarian was more than 10 µM throughout. Besides, the TGI in the test with OVCAR-8 ovarian, with SF-268 CNS, in the test with SK-MEL-2 melanoma, with SK-OV-3 ovarian, in the test on SN12C renal and in the test with T-47D breast was more than 10 µM each time. The compound also came in with a TGI in the test with UO-31 renal of 0.275 µM.
As for `CC(=O)Nc1ccc(-c2nc3cc(Cl)ccc3o2)cc1`, the TGI with ACHN renal, in the test on DU-145 prostate, in the test with EKVX NSCLC, in the test with HCC-2998 colon, in the test with HL-60(TB) leukemia and with HOP-92 NSCLC was more than 50 µM throughout. In addition, the TGI in the test with HT29 colon, in the test with K-562 leukemia, in the test with NCI-H23 lung, with NCI-H460 lung, with NCI-H522 lung and with NCI/ADR-RES ovarian was more than 50 µM in each case. The TGI in the test on OVCAR-8 ovarian, in the test on SF-268 CNS, in the test on SK-MEL-2 melanoma, in the test on SK-OV-3 ovarian, in the test on SN12C renal and with T-47D breast was more than 50 µM throughout. In the test on UO-31 renal, this compound yielded a TGI of more than 50 µM.
For the compound `O=S(=O)(O)c1ccc(N=Nc2ccc(N=Nc3c(O)ccc4ccccc34)cc2)cc1`, the TGI in the test on ACHN renal, with DU-145 prostate, in the test on EKVX NSCLC, with HCC-2998 colon, in the test with HL-60(TB) leukemia and with HOP-92 NSCLC was more than 100 µM throughout. Moreover, the TGI in the test on HT29 colon, in the test with K-562 leukemia, with NCI-H23 lung, in the test on NCI-H460 lung, in the test on NCI-H522 lung and in the test with NCI/ADR-RES ovarian was more than 100 µM throughout. The TGI in the test on OVCAR-8 ovarian, in the test with SF-268 CNS, in the test with SK-MEL-2 melanoma, in the test on SK-OV-3 ovarian, in the test on SN12C renal and with T-47D breast was more than 100 µM in each case. In addition, the TGI in the test on UO-31 renal is more than 100 µM.
On to `CCCCn1c(C)c2c(c1C)C(=O)N(CC(O)CN1CCc3ccccc3C1)C2=O` (stereo not drawn), for which the TGI with ACHN renal, in the test with DU-145 prostate, in the test with EKVX NSCLC, with HCC-2998 colon, in the test with HL-60(TB) leukemia and in the test on HOP-92 NSCLC was more than 100 µM in each case. Further, the TGI with HT29 colon, in the test on K-562 leukemia, in the test with NCI-H23 lung, in the test with NCI-H460 lung, in the test on NCI-H522 lung and with NCI/ADR-RES ovarian was more than 100 µM throughout. For the same compound, the TGI in the test on OVCAR-8 ovarian is more than 100 µM; in the test on SF-268 CNS, more than 100 µM; in the test on SK-MEL-2 melanoma, 14.8 µM; with SK-OV-3 ovarian, more than 100 µM; in the test on SN12C renal, more than 100 µM; in the test on T-47D breast, more than 100 µM. The same compound registered a TGI with UO-31 renal of more than 100 µM.
For the compound `CC(C)(C)c1cc(C(=O)/C=C/C=C/c2ccccc2)cc(C(C)(C)C)c1O`, the TGI with ACHN renal was more than 100 µM; with DU-145 prostate, 98.1 µM; in the test on EKVX NSCLC it was more than 100 µM; in the test with HCC-2998 colon, 28.2 µM; with HL-60(TB) leukemia, 8.88 µM; in the test with HOP-92 NSCLC it was more than 100 µM. Besides, the TGI is more than 89.9 µM in the test with HT29 colon; more than 100 µM in the test on K-562 leukemia; more than 100 µM in the test on NCI-H23 lung; 31.5 µM in the test with NCI-H460 lung; 52.5 µM in the test on NCI-H522 lung; 30.5 µM in the test with NCI/ADR-RES ovarian. The TGI in the test on OVCAR-8 ovarian was 58.5 µM; with SF-268 CNS, more than 74 µM; with SK-MEL-2 melanoma, 34.5 µM; in the test on SK-OV-3 ovarian, more than 100 µM; in the test on SN12C renal it was 77.3 µM; in the test on T-47D breast, more than 100 µM. This compound also yielded a TGI in the test with UO-31 renal of more than 77.3 µM.
In the case of `O=[N+]([O-])c1cc2c(c3nonc13)OCCCCO2`, the TGI came out at 19.6 µM in the test on ACHN renal; 28.2 µM with DU-145 prostate; 38.5 µM in the test with EKVX NSCLC; 35.5 µM with HCC-2998 colon; 5.15 µM in the test on HL-60(TB) leukemia; 26.3 µM in the test on HOP-92 NSCLC. Further, the TGI was 21.1 µM with HT29 colon; 17.3 µM in the test on K-562 leukemia; 25.2 µM in the test on NCI-H23 lung; 14 µM in the test with NCI-H460 lung; 17.4 µM in the test with NCI-H522 lung; 62.6 µM in the test on NCI/ADR-RES ovarian. Also, the TGI stood at 14.2 µM with OVCAR-8 ovarian; 27.3 µM in the test on SF-268 CNS; 29.2 µM with SK-MEL-2 melanoma; 65 µM in the test on SK-OV-3 ovarian; 16.1 µM in the test on SN12C renal; 60.5 µM in the test on T-47D breast. For the same compound, the TGI in the test with UO-31 renal was determined as 19.7 µM.
